# Data reported in PubChem BioAssay AID1845202 (Molecular Pharmacology Branch, DTP, NCI, 2023).
# Tested on: DMS 114 tumor spheroids, viability % test/control
# Test: Anticancer human tumor DMS 114 cell line growth inhibition;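 further: spheroids exposed to compounds for 7 days before read-out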;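 on viability, T/C: luminescence used as a proxy for viable cells; 100% = DMSO vehicle control viability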
# Conditions: spheroids with HUVEC and MSC; for IC50: curve of first compound; for viability, T/C: stronger effect = lower value
# Summary of the method: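 Complex tumor spheroids combined malignant cells with endothelial cells and mesenchymal stem cells. DNA-damaging drugs and DNA repair inhibitors were tested alone and in combination, at half-log dilutions down from clinical Cmax (top 10 microM if Cmax unknown), 0.25% DMSO final.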
# [1] = second compound 0.003 µM, first compound 0.0316 µM
# [2] = second compound 0.003 µM, first compound 0.1 µM
# [3] = second compound 0.003 µM, first compound 0.316 µM
# [4] = second compound 0.003 µM, first compound 1 µM
# [5] = second compound 0.003 µM, first compound 3.16 µM
# [6] = second compound 0.003 µM, first compound 10 µM
# [7] = second compound 0.00949 µM, first compound 0.0316 µM
# [8] = second compound 0.00949 µM, first compound 0.1 µM
# [9] = second compound 0.00949 µM, first compound 0.316 µM
# [10] = second compound 0.00949 µM, first compound 1 µM
# [11] = second compound 0.00949 µM, first compound 3.16 µM
# [12] = second compound 0.00949 µM, first compound 10 µM
# [13] = second compound 0.03 µM, first compound 0.0316 µM
# [14] = second compound 0.03 µM, first compound 0.1 µM
# [15] = second compound 0.03 µM, first compound 0.316 µM
# [16] = second compound 0.03 µM, first compound 1 µM
# [17] = second compound 0.03 µM, first compound 3.16 µM
# [18] = second compound 0.03 µM, first compound 10 µM
# [19] = second compound 0.0949 µM, first compound 0.0316 µM
# [20] = second compound 0.0949 µM, first compound 0.1 µM
# [21] = second compound 0.0949 µM, first compound 0.316 µM
# [22] = second compound 0.0949 µM, first compound 1 µM
# [23] = second compound 0.0949 µM, first compound 3.16 µM
# [24] = second compound 0.0949 µM, first compound 10 µM
# [25] = second compound 0.3 µM, first compound 0.0316 µM
# [26] = second compound 0.3 µM, first compound 0.1 µM
# [27] = second compound 0.3 µM, first compound 0.316 µM
# [28] = second compound 0.3 µM, first compound 1 µM
# [29] = second compound 0.3 µM, first compound 3.16 µM
# [30] = second compound 0.3 µM, first compound 10 µM
smiles,measurement,setting,value
CC(C)n1c(=O)n(C)c2cnc3cc(F)c(-c4ccc(OCCCN5CCCCC5)nc4)cc3c21 + CC[C@@]1(O)C(=O)OCc2c1cc1n(c2=O)Cc2cc3c(CN(C)C)c(O)ccc3nc2-1,IC50,second compound 0.003 µM,1950 nM
same,IC50,second compound 0.00949 µM,< 31.6 nM
same,IC50,second compound 0.03 µM,< 31.6 nM
same,IC50,second compound 0.0949 µM,< 31.6 nM
same,IC50,second compound 0.3 µM,< 31.6 nM
same,"viability, T/C",[1],75.1%
same,"viability, T/C",[2],72.8%
same,"viability, T/C",[3],63.4%
same,"viability, T/C",[4],61.1%
same,"viability, T/C",[5],43.5%
same,"viability, T/C",[6],16.7%
same,"viability, T/C",[7],37.9%
same,"viability, T/C",[8],37.9%
same,"viability, T/C",[9],33.3%
same,"viability, T/C",[10],31.3%
same,"viability, T/C",[11],25%
same,"viability, T/C",[12],10.4%
same,"viability, T/C",[13],24.7%
same,"viability, T/C",[14],24.6%
same,"viability, T/C",[15],23.9%
same,"viability, T/C",[16],20.2%
same,"viability, T/C",[17],18.2%
same,"viability, T/C",[18],9.25%
same,"viability, T/C",[19],13.6%
same,"viability, T/C",[20],15.6%
same,"viability, T/C",[21],11.3%
same,"viability, T/C",[22],14.2%
same,"viability, T/C",[23],11.2%
same,"viability, T/C",[24],7.13%
same,"viability, T/C",[25],9.95%
same,"viability, T/C",[26],9.05%
same,"viability, T/C",[27],9.41%
same,"viability, T/C",[28],9.97%
same,"viability, T/C",[29],8.36%
same,"viability, T/C",[30],6.56%
COc1ccc([C@@H](O)c2cc(-c3ncnc4cc(N5CCOCC5)ccc34)c(F)cc2Cl)nn1 + CC[C@@]1(O)C(=O)OCc2c1cc1n(c2=O)Cc2cc3c(CN(C)C)c(O)ccc3nc2-1,IC50,second compound 0.003 µM,5390 nM
same,IC50,second compound 0.00949 µM,1760 nM
same,IC50,second compound 0.03 µM,< 31.6 nM
same,IC50,second compound 0.0949 µM,< 31.6 nM
same,IC50,second compound 0.3 µM,< 31.6 nM
same,"viability, T/C",[1],116%
same,"viability, T/C",[2],110%
same,"viability, T/C",[3],109%
same,"viability, T/C",[4],106%
same,"viability, T/C",[5],69%
same,"viability, T/C",[6],27.9%
same,"viability, T/C",[7],89.9%
same,"viability, T/C",[8],73.8%
same,"viability, T/C",[9],78.9%
same,"viability, T/C",[10],57.7%
same,"viability, T/C",[11],40.2%
same,"viability, T/C",[12],17.3%
same,"viability, T/C",[13],30.8%
same,"viability, T/C",[14],32.4%
same,"viability, T/C",[15],32.8%
same,"viability, T/C",[16],25.5%
same,"viability, T/C",[17],13.7%
same,"viability, T/C",[18],13.5%
same,"viability, T/C",[19],16.2%
same,"viability, T/C",[20],16.6%
same,"viability, T/C",[21],16.4%
same,"viability, T/C",[22],14%
same,"viability, T/C",[23],10.1%
same,"viability, T/C",[24],7.97%
same,"viability, T/C",[25],10.7%
same,"viability, T/C",[26],9.61%
same,"viability, T/C",[27],9.29%
same,"viability, T/C",[28],10.1%
same,"viability, T/C",[29],6.94%
same,"viability, T/C",[30],5.57%
O=C(c1cc(Cc2n[nH]c(=O)c3ccccc23)ccc1F)N1CCN(C(=O)C2CC2)CC1 + COc1cc2c(cc1O)CCNC21CSC2c3c(OC(C)=O)c(C)c4c(c3C(COC1=O)N1C(O)C3Cc5cc(C)c(OC)c(O)c5C(C21)N3C)OCO4,IC50,second compound 30 pM,5540 nM
same,IC50,second compound 94.9 pM,3670 nM
same,IC50,second compound 0.0003 µM,< 94.9 nM
same,IC50,second compound 0.000949 µM,< 94.9 nM
same,IC50,second compound 0.003 µM,< 94.9 nM
same,"viability, T/C","second compound 30 pM, first compound 0.0949 µM",106%
same,"viability, T/C","second compound 30 pM, first compound 0.3 µM",103%
same,"viability, T/C","second compound 30 pM, first compound 0.949 µM",97.1%
same,"viability, T/C","second compound 30 pM, first compound 3 µM",83.8%
same,"viability, T/C","second compound 30 pM, first compound 9.49 µM",20.2%
same,"viability, T/C","second compound 30 pM, first compound 30 µM",17.4%
same,"viability, T/C","second compound 94.9 pM, first compound 0.0949 µM",92.3%
same,"viability, T/C","second compound 94.9 pM, first compound 0.3 µM",94.6%
same,"viability, T/C","second compound 94.9 pM, first compound 0.949 µM",88.1%
same,"viability, T/C","second compound 94.9 pM, first compound 3 µM",57.2%
same,"viability, T/C","second compound 94.9 pM, first compound 9.49 µM",17.3%
same,"viability, T/C","second compound 94.9 pM, first compound 30 µM",13.7%
same,"viability, T/C","second compound 0.0003 µM, first compound 0.0949 µM",29.5%
same,"viability, T/C","second compound 0.0003 µM, first compound 0.3 µM",21.9%
same,"viability, T/C","second compound 0.0003 µM, first compound 0.949 µM",23.2%
same,"viability, T/C","second compound 0.0003 µM, first compound 3 µM",14.8%
same,"viability, T/C","second compound 0.0003 µM, first compound 9.49 µM",7.77%
same,"viability, T/C","second compound 0.0003 µM, first compound 30 µM",7.92%
same,"viability, T/C","second compound 0.000949 µM, first compound 0.0949 µM",3.19%
same,"viability, T/C","second compound 0.000949 µM, first compound 0.3 µM",2.4%
same,"viability, T/C","second compound 0.000949 µM, first compound 0.949 µM",2.21%
same,"viability, T/C","second compound 0.000949 µM, first compound 3 µM",2.86%
same,"viability, T/C","second compound 0.000949 µM, first compound 9.49 µM",1.24%
same,"viability, T/C","second compound 0.000949 µM, first compound 30 µM",0.5%
same,"viability, T/C","second compound 0.003 µM, first compound 0.0949 µM",0.24%
same,"viability, T/C","second compound 0.003 µM, first compound 0.3 µM",0.22%
same,"viability, T/C","second compound 0.003 µM, first compound 0.949 µM",0.19%
same,"viability, T/C","second compound 0.003 µM, first compound 3 µM",0.2%
same,"viability, T/C","second compound 0.003 µM, first compound 9.49 µM",0.19%
same,"viability, T/C","second compound 0.003 µM, first compound 30 µM",0.4%
